Results taken from PMC10042540, “Targeting oncogenic KRasG13C with nucleotide-based covalent inhibitors” (eLife, 2023).

Legend:
SOS = assay: Guanine nucleotide-exchange factor assay (mantdGDP fluorescence); assay type: biochemical
Procedure: SOS-catalysed nucleotide exchange was monitored at 25 °C in a FluoroMax-3 spectrofluorometer (excitation at 360 nm, emission at 440 nm) in 20 mM HEPES (pH 7.5), 100 mM NaCl, 2 mM MgCl2, and 1 mM TCEP. 5 µM KRas1-169 was mixed with 10 µM mantdGDP and subsequently with different concentrations of SOS (0.25 µM and 0.5 µM) (Figure 3A; Figure 3—figure supplement 1).

[1] = test system: GST-tagged cRafRBD (amino acids 51–131); assay: Effector binding (pull-down experiments); settings: in the presence of GppNHp alone or in combination with SOS
Procedure: Pull-down experiments were performed in 20 mM HEPES pH 7.5, 50 mM NaCl and 2 mM MgCl2. […] Afterwards, 50 µL glutathione magnetic beads were added to each sample for 30 min. After washing the beads with 500 µL buffer, the beads were settled with a magnet and the supernatant was carefully removed. The beads were resuspended in 50 µL of 4xSDS-loading buffer and visualized via SDS-PAGE (Figure 3—figure supplement 3).

[2] = test system: farnesyltransferase (FTase); assay: In vitro farnesylation; assay type: biochemical; settings: full-length protein, FPP, ESI-MS
Procedure: 50 µM of full-length KRas protein was mixed with 250 µM farnesyl pyrophosphate (FPP) and 10 µM farnesyltransferase (FTase). After incubation at room temperature for 1 hr the mixture was centrifugated at 14,000 rpm for 10 min at 4 °C and analyzed via ESI-MS (Figure 3—figure supplement 4).

[3] = test system: Ras pathway (pcRaf, pAkt, pErk, pS6); assay: Electroporation into HeLa cells, western blot of downstream signalling; assay type: cell-based, human; settings: electroporation of 50-300 µg protein
Procedure: HeLa cells were obtained from the American Type Culture Collection (ATCC) and were cultured in DMEM medium (Gibco) supplemented with 10% fetal bovine serum (FBS) (PAN-Biotech) and 1% penicillin/streptomycin (Gibco). Cells were cultured in a humidified incubator at 37 °C in the presence of 5% CO2. The identity of the cells was validated by STR profiling and the cells were tested negative for mycoplasma contamination.
Electroporation of full-length KRas constructs (KRasWT, KRasG13C, KRasG13C-edaGDP, KRasG13C:acetyledaGDP and KRasG13C-edaGppCp) was performed based on the protocol described by [Alex et al., 2019] using the Neon Transfection System Kit (Thermo Fisher). For electroporation, 3 million cells per experiment were harvested by trypsinization, washed with PBS, and resuspended in 85 µL of the electroporation buffer R (Thermo Fisher). Increasing amounts of recombinant protein samples for each construct (0, 50, 100, 200 and 300 µg) were diluted 1:1 in buffer R followed by the addition of 30 µL of this protein master mix to the cell suspension. This cellular slurry was loaded into a […] Neon Pipette Tip (Thermo Fisher) and electroporated with 2x35 ms pulses at 1000 V. After electroporation, the cells were washed twice with PBS (15 mL) to remove non-internalized extracellular protein and the cell pellet was resuspended in 2 mL complete growth media. Cells were transferred into six-well tissue culture plates (Sarstedt) and incubated for 24 hr at 37 °C and 5% CO2 in a humidified incubator for recovery before being processed for western blotting analysis.
After recovery of the electroporation, cells were washed twice with ice-cold PBS and lysed in 100 µL of phosphatase and protease inhibitor containing RIPA buffer (Cell Signaling Technology). Cells were incubated on ice for 30 min and then harvested by scraping followed by centrifugation at 14,000 rpm for 10 min at 4 °C. Protein concentrations were determined using the Pierce BCA protein assay (Thermo) following the manufacturer’s recommended procedure. Equal amounts of protein (10 µg) were analyzed by SDS-PAGE and transferred to Immobilon-FL PVDF membranes (Merck Millipore) using Pierce 1-step transfer buffer (Thermo) and the Pierce Power Blotter (Thermo). Membranes were washed with ddH2O for 5 min, blocked with OdysseyBlocking Buffer TBS (Li-Cor) for 1 hr at room temperature and then incubated with primary antibodies diluted in OdysseyBlocking Buffer TBS overnight at 4 °C with gentle agitation. […] Quantification of protein levels from western blots was performed using Empiria Studio (Li-Cor) (Figure 3B, C, Figure 3—figure supplements 6–9).

tErk = assay: Electroporation into HeLa cells, western blot quantification; assay type: cell-based, human; settings: for tErk mean fold change: mean of cell lysates
In short: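 HeLa cells electroporated (2×35 ms, 1000 V) with 0–300 µg recombinant full-length KRas WT or G13C constructs, washed, then recovered for 24 h at 37 °C. Lysates (10 µg protein) analysed by SDS-PAGE and fluorescent western blotting, with protein levels quantified from blot signal.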

“KRasG13C-edaGDP: KRasG13C covalently locked with edaGDP at Cys13” was tested, and the SOS-catalysed nucleotide exchange (SOS; 5 µM KRas1-169, 10 µM mantdGDP, 0.25 or 0.5 µM SOS) was “unable to do so”, the “intrinsic nucleotide exchange rate” value (SOS; absence of SOS) was “abrogated” and the “binding to RafRBD (pull-down)” value [1] was “neither in the presence of GppNHp nor of additional SOS able to bind to the RafRBD”. For the same substance, the in vitro farnesylation [2] was “fully farnesylated”, the “downstream signalling (pcRaf, pAkt, pErk, pS6)” value [3] was “unable to induce these effects” and the tErk fold change (tErk; 50 µg, Cell lysate 1) was 0.84. The tErk fold change (tErk; 50 µg, Cell lysate 2) was 2.08, the tErk fold change (tErk; 50 µg, Cell lysate 3) was 0.64 and the “tErk mean fold change” value (tErk; 50 µg) was 1.19. It also gave a tErk fold change (tErk; 100 µg, Cell lysate 1) of 0.91, a tErk fold change (tErk; 100 µg, Cell lysate 2) of 1.86 and a tErk fold change (tErk; 100 µg, Cell lysate 3) of 0.78. For the same substance, the “tErk mean fold change” value (tErk; 100 µg) was 1.18, the tErk fold change (tErk; 200 µg, Cell lysate 1) was 1.12 and the tErk fold change (tErk; 200 µg, Cell lysate 2) was 1.76. For the same substance, the tErk fold change (tErk; 200 µg, Cell lysate 3) was 0.74, the “tErk mean fold change” value (tErk; 200 µg) was 1.21 and the tErk fold change (tErk; 300 µg, Cell lysate 1) was 1.26. The tErk fold change (tErk; 300 µg, Cell lysate 2) was 1.23, the tErk fold change (tErk; 300 µg, Cell lysate 3) was 0.72 and the “tErk mean fold change” value (tErk; 300 µg) was 1.07.
